According to patent publication US4923963A, “Bradykinin antagonist peptides” (Nova Technology Limited Partnership, priority 1987, dated 1990):
Where two headings read alike, the source gives them in different places. Square brackets hold non-standard residues; d marks the D form. Ends that are not written are not given here. Peptide text beside a SMILES is read from it. d2Nal = N[C@H](Cc1ccc2ccccc2c1)C(=O)O; Hyp = O=C(O)[C@@H]1C[C@@H](O)CN1; 2Thi = N[C@@H](Cc1cccs1)C(=O)O; d2Thi = N[C@H](Cc1cccs1)C(=O)O

How the values were obtained:
[1] = system: isolated guinea pig ileum; type: cell-based; design: pA2 /GPI: activity class: scale not given here; settings: for pA2 /GPI: activity class: not quantitated
Procedure: The bradykinin antagonists were assayed on isolated rat uterus in natural or induced estrus and on guinea pig ileum, according to the commonly accepted assay methods for bradykinin and related kinins as described by Trautschold (Handbook of Expt. Pharmacol. Vol 25, Springer Verlag, pp. 53-55, 1970) for inhibition of the myotropic activity of bradykinin. The inhibition potencies, as determined according to the commonly accepted manner described by Schild for antagonists of biologically active compounds (Br. J. Pharmacol. 2:189, 1947), and expressed as pA2 values are determined on isolated rat uterus (RUT) and isolated guinea pig ileum (GPI). In the assays, a dose-response curve is determined for the reference substance bradykinin. The dose of bradykinin which produced a half maximal contraction of tissue is the ED50 dose. An amount of bradykinin equivalent to twice the ED50 dose is administered to the tissue 30 seconds after the start of incubation of the tissue with a dose of antagonist. Doses of antagonist are increased in this protocol until pre-incubation with a dose of antagonist reduces the contraction in response to the double ED50 dose of bradykinin to response of a single ED50 dose of bradykinin. The pA2 value represents the negative logarithm of the molar concentration of antagonist necessary to reduce the response of a double ED50 dose of bradykinin to that of an ED50 dose. One unit of pA2 value represents an order of magnitude change in potency. For comparison, the negative log of the dose of BK, the dose which causes half maximal contraction of the tissues, is commonly known as the pD2 value. The pD2 value for bradykinin is 7.9 on the rat uterus and 7.4 on the guinea pig ileum.

isolated rat uterus = type: cell-based; settings: for pA2 /RUT: activity class: not quantitated
How it was run: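 Antagonism of bradykinin-induced contraction in isolated rat uterus (natural or induced estrus) and guinea pig ileum. Antagonist preincubated 30 s before a double-ED50 bradykinin dose, with the dose raised until the response fell to that of a single ED50. pA2 is the negative log molar antagonist concentration achieving this (Schild method).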

rat blood pressure = test: effects on blood pressure in the anesthetized rat (RBP), intraaortic and intravenous bolus; type: in vivo; design: RBP-IA: activity class / RBP-IV: activity class: scale not given here
Procedure: The in vivo effects of bradykinin antagonists on blood pressure in the anesthetized rat are determined according to the assay described by Roblero, Ryan and Stewart (Res. Commun. Pathol. Pharmacol. 6:207, 1973). The antagonists also produce inhibition of the bradykinin response when injected as a bolus admixture of bradykinin plus antagonist by either the ia or iv route of administration.

[2] = in vivo; cited from earlier work
pulmonary circulation = settings: anesthetized rat; cited from earlier work
[3] = rat blood pressure, intraaortic bolus
[4] = rat blood pressure, intravenous bolus

Molecule	pA2 /GPI: activity class ([1]; isolated guinea pig ileum)	RBP-IA: activity class (rat blood pressure; [3])	RBP-IV: activity class (rat blood pressure; [4])	pA2 /GPI: agonist potency as percent of BK potency ([1]; isolated guinea pig ileum) [%]	pA2 /RUT: agonist potency as percent of BK potency (isolated rat uterus; isolated rat uterus) [%]	RBP-IA: agonist potency as percent of BK potency (rat blood pressure; [3]) [%]	RBP-IV: agonist potency as percent of BK potency (rat blood pressure; [4]) [%]	% DESTR (metabolic breakdown of BK-like agonists in RBP assay) (rat blood pressure; relative to BK = 100%) [%]	further results
N=C(N)NCCC[C@@H](N)C(=O)N[C@H](Cc1cccs1)C(=O)N1CCC[C@H]1C(=O)N1CCC[C@H]1C(=O)NCC(=O)N[C@@H](Cc1ccccc1)C(=O)N[C@@H](CO)C(=O)N[C@H](Cc1cccs1)C(=O)N[C@@H](Cc1ccccc1)C(=O)N[C@@H](CCCNC(=N)N)C(=O)O [Example 35, DArg-DThi-Pro-Pro-Gly-Phe-Ser-DThi-Phe-Arg] (H-[dR][d2Thi]PPGFS[d2Thi]FR-OH)	0	0	0						pA2 /RUT: activity class (isolated rat uterus; isolated rat uterus): 0
N=C(N)NCCC[C@@H](N)C(=O)N[C@H](Cc1ccc2ccccc2c1)C(=O)N1CCC[C@H]1C(=O)N1CCC[C@H]1C(=O)NCC(=O)N[C@@H](Cc1ccccc1)C(=O)N[C@@H](CO)C(=O)N[C@H](Cc1cccs1)C(=O)N[C@@H](Cc1ccccc1)C(=O)N[C@@H](CCCNC(=N)N)C(=O)O [Example 39, DArg-DNal-Pro-Pro-Gly-Phe-Ser-DThi-Phe-Arg] (H-[dR][d2Nal]PPGFS[d2Thi]FR-OH)	0	0	0						pA2 /RUT (antagonist potency) (isolated rat uterus): 5.6
N=C(N)NCCC[C@H](N)C(=O)N1CCC[C@H]1C(=O)N1CCC[C@H]1C(=O)NCC(=O)N[C@@H](Cc1cccs1)C(=O)N[C@@H](CO)C(=O)N[C@H](Cc1ccccc1)C(=O)N[C@@H](Cc1cccs1)C(=O)N[C@H](CCCNC(=N)N)C(=O)O [Example 41, Arg-Pro-Pro-Gly-Thi-Ser-DPhe-Thi-DArg] (H-RPPG[2Thi]S[dF][2Thi][dR]-OH)	0								pA2 /RUT: agonist potency as percent of BK potency (isolated rat uterus): 0.01%; % DESTR (metabolic breakdown of BK-like agonists in RBP assay) (rat blood pressure; rat, in vivo): 77%; RBP-IA: agonist potency as percent of BK potency (rat blood pressure; rat, in vivo): 0.1%; RBP-IV: agonist potency as percent of BK potency (rat blood pressure; rat, in vivo, iv): 0.6%
CC(=O)N[C@@H](CCCNC(=N)N)C(=O)N1CCC[C@H]1C(=O)N1CCC[C@H]1C(=O)NCC(=O)N[C@@H](Cc1cccs1)C(=O)N[C@@H](CO)C(=O)N[C@H](Cc1ccccc1)C(=O)N[C@@H](Cc1cccs1)C(=O)N[C@H](CCCNC(=N)N)C(=O)O [Example 42, Ac-Arg-Pro-Pro-Gly-Thi-Ser-DPhe^7 -Thi-DArg] (Ac-RPPG[2Thi]S[dF][2Thi][dR]-OH)	0	0	0						pA2 /RUT: activity class (isolated rat uterus; isolated rat uterus): 0
CC[C@H](C)[C@H](NC(=O)[C@H](CCCNC(=N)N)NC(=O)[C@H](Cc1ccccc1)NC(=O)[C@@H]1CCCN1C(=O)[C@H](CO)NC(=O)[C@H](Cc1ccccc1)NC(=O)CNC(=O)[C@@H]1CCCN1C(=O)[C@@H]1CCCN1C(=O)[C@H](CCCNC(=N)N)NC(=O)[C@H](N)CCCNC(=N)N)C(=O)N[C@@H](Cc1ccc(O)cc1)C(=O)O [Example 60, DArg-Arg-Pro-Pro-Gly-Phe-Ser-Pro-Phe-Arg-Ile-Tyr] (H-[dR]RPPGFSPFRIY-OH)				34	25	12	189	47	
CC[C@H](C)[C@H](NC(=O)[C@H](CCCNC(=N)N)NC(=O)[C@H](Cc1ccccc1)NC(=O)[C@@H]1CCCN1C(=O)[C@H](CO)NC(=O)[C@H](Cc1ccccc1)NC(=O)CNC(=O)[C@@H]1CCCN1C(=O)[C@@H]1CCCN1C(=O)[C@H](CCCNC(=N)N)NC(=O)[C@H](CCCCN)NC(=O)[C@@H](N)CCCCN)C(=O)N[C@@H](Cc1ccc(O)cc1)C(=O)O [Example 61, Lys-Lys-Arg-Pro-Pro-Gly-Phe-Ser-Pro-Phe-Arg-Ile-Tyr]				21	18	9	497	0	
CC[C@H](C)[C@H](NC(=O)[C@H](CCCNC(=N)N)NC(=O)[C@H](Cc1cccs1)NC(=O)[C@@H](Cc1ccccc1)NC(=O)[C@H](CO)NC(=O)[C@H](Cc1cccs1)NC(=O)CNC(=O)[C@@H]1C[C@@H](O)CN1C(=O)[C@@H]1CCCN1C(=O)[C@H](CCCNC(=N)N)NC(=O)[C@H](N)CCCNC(=N)N)C(=O)N[C@@H](Cc1ccc(O)cc1)C(=O)O [Example 68, DArg-Arg-Pro-Hyp-Gly-Thi-Ser-DPhe-Thi-Arg-Ile-Tyr] (H-[dR]RP[Hyp]G[2Thi]S[dF][2Thi]RIY-OH)									pA2 /GPI (antagonist potency) ([1]; isolated guinea pig ileum, number of tissues in parentheses): 6.7; pA2 /RUT: agonist potency as percent of BK potency (isolated rat uterus): 0.02%; RBP-IA: agonist potency as percent of BK potency (rat blood pressure; rat, in vivo): 7%
RPPGFSPFR [bradykinin, Arg-Pro-Pro-Gly-Phe-Ser-Pro-Phe-Arg]									half life in the systemic circulation [2]: less than 30 seconds; destruction on a single passage through the pulmonary circulation (pulmonary circulation): 98-99%; pD2 value (negative log of dose causing half maximal contraction) ([1]; guinea pig ileum): 7.4; pD2 value (negative log of dose causing half maximal contraction) (isolated rat uterus; rat uterus): 7.9
RPPGFSPFRIY [Example 59, Arg-Pro-Pro-Gly-Phe-Ser-Pro-Phe-Arg-Ile-Tyr]				21	26	6	103	61	
[dK]KRPPGFSPRIY [Example 62]				1	5	5	165	0	
